ChEMBL document CHEMBL3352480, “Antiproliferative glabretal-type triterpenoids from the root bark of Dictamnus dasycarpus” (Bioorg Med Chem Lett, 2015)

Tests used:
[1] = Immunosupressive activity in OVA323-339 peptide-stimulated OT-2 T cell receptor transgenic mouse splenocytes assessed as inhibition of T cell proliferation after 3 days by MTT assay; assay type: functional, cell-based; conditions: Splenocyte, 72 h
[2] = Cytotoxicity against OT-2 T cell receptor transgenic mouse splenocytes using propidium iodide by flow cytometry; assay type: cell-based; conditions: splenocyte
[3] = Effect on IL-2 secretion in OVA323-339 peptide-stimulated OT-2 T cell receptor transgenic mouse T cells after 3 days by sandwich ELISA; assay type: cell-based; conditions: splenocyte, 72 h
[4] = Effect on IFN-gamma secretion in OVA323-339 peptide-stimulated OT-2 T cell receptor transgenic mouse T cells after 3 days by sandwich ELISA; assay type: cell-based; conditions: splenocyte, 72 h

CC(C)CC(=O)O[C@@H]1CC[C@]2(C)[C@H]3CC[C@]45C[C@]4(CC[C@H]5[C@@H]4C[C@H]([C@H](O)C(C)(C)O)OC4O)[C@]3(C)[C@H](O)C[C@H]2C1(C)C (stereo partly specified)
IC50 [1]: > 20000 nM
Activity [2]: Non-toxic
Activity [3]: Non-toxic
Activity [4]: Non-toxic

CC(C)CC(=O)O[C@@H]1CC[C@]2(C)[C@H]3CC[C@]45C[C@]4(CC[C@H]5[C@@H]4C[C@H]([C@@H]5O[C@]5(C)CO)OC4O)[C@]3(C)[C@H](O)C[C@H]2C1(C)C (stereo partly specified)
IC50 [1]: 1500 nM
Activity [2]: Non-toxic
Activity [3]: Non-toxic
Activity [4]: Non-toxic

CCCCCCCCCC(=O)O[C@@H]1CC[C@]2(C)[C@H]3CC[C@]45C[C@]4(CC[C@H]5[C@@H]4C[C@H]([C@@H]5O[C@]5(C)CO)OC4O)[C@]3(C)[C@H](O)C[C@H]2C1(C)C (stereo partly specified)
IC50 [1]: 1800 nM
Activity [2]: Non-toxic
Activity [3]: Non-toxic
Activity [4]: Non-toxic

CCC(C)CCCCCCC(=O)O[C@@H]1CC[C@]2(C)[C@H]3CC[C@]45C[C@]4(CC[C@H]5[C@@H]4C[C@H]([C@@H]5O[C@]5(C)CO)OC4O)[C@]3(C)[C@H](O)C[C@H]2C1(C)C (stereo partly specified)
IC50 [1]: 1500 nM
Activity [2]: Non-toxic
Activity [3]: Non-toxic
Activity [4]: Non-toxic
